Laboratory results taken from patent US20240366589A1, “NHE3-BINDING COMPOUNDS AND METHODS FOR INHIBITING PHOSPHATE TRANSPORT” (Ardelyx, Inc., priority 2013, published 2024).

How the values were obtained:
[1] = test system: absorption of sodium from the intestinal lumen; experiment: Fecal form score (FFS) 16 h after oral dose in rats; assay type: in vivo, rat; details: oral gavage, 16 h post-dose, scale 1-5
Summary of the method: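 Fecal form was scored at 16 h post-dose on a 1–5 wetness scale (normal pellet to liquid stream), with two independent observations averaged across six rats per group. Animals were 8-week-old Sprague-Dawley rats given test compound or water orally in the late afternoon and kept in metabolic cages.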

[2] = test system: phosphorus and calcium levels in the urine of rats; experiment: Urinary excretion of phosphate and calcium in rats (16 h overnight urine); assay type: in vivo, rat; details: rats, oral gavage, 16 h post-dose
Rat NHE3 = target: T1, Rat NHE3 (Rattus norvegicus, UniProt P26433); experiment: Cell-based NHE3 activity under prompt conditions (OK cells, BCECF pH recovery), rat NHE3; details: prompt conditions
T1 construct: expressed in transfected cells; host or cells: Opossum kidney (OK) cells (ATCC), electroporation
T1 sequence (P26433 29-831): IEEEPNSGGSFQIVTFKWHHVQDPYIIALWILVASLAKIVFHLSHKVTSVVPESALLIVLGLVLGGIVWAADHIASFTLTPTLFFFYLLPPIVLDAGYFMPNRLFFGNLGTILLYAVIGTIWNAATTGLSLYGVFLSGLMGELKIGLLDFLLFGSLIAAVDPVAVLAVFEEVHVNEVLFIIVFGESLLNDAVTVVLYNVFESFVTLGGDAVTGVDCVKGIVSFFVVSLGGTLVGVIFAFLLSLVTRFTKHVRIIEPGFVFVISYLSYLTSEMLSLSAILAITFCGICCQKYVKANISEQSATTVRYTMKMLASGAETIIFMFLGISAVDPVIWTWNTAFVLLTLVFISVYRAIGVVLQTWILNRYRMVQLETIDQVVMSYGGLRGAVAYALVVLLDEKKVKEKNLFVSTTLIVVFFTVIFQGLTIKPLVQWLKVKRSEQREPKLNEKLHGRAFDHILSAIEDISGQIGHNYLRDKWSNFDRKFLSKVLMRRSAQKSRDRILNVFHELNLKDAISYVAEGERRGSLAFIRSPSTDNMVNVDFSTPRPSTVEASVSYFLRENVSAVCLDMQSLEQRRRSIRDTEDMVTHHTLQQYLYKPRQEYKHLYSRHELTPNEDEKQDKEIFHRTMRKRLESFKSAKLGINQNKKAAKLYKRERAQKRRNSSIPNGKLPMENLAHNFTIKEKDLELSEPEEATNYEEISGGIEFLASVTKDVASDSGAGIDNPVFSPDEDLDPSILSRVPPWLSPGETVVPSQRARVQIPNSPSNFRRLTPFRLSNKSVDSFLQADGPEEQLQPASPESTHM
Summary of the method: (§1)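 Read-out: initial rate of BCECF-reported intracellular pH recovery via Na+/H+ antiport, fitted to pIC50. Opossum kidney cells transfected with rat or human NHE3; NH4Cl prepulse with 5 μM BCECF-AM, 30 min RT; Na+-free choline buffer 10 min.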

[3] = test system: absorption of sodium from the intestinal lumen; experiment: Inhibition of intestinal sodium absorption: urinary sodium (uNa) 16 h after single oral dose in rats; assay type: in vivo, rat; details: oral gavage, 16 h post-dose
Summary of the method: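 Urinary sodium mass over the 16 h after one oral gavage dose, measured by cation-exchange ion chromatography, reported as percent of water-vehicle group; ANOVA plus Dunnett's post hoc test. Groups of six 8-week-old Sprague-Dawley rats, housed individually in metabolic cages post-dose, fed and watered freely.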

Human NHE3 = target: T2, Human NHE3 (Homo sapiens, UniProt P48764); experiment: Cell-based NHE3 activity under prompt conditions (OK cells, BCECF pH recovery), human NHE3; details: prompt conditions
T2 construct: expressed in transfected cells; host or cells: Opossum kidney (OK) cells (ATCC), electroporation
T2 sequence (P48764 26-834): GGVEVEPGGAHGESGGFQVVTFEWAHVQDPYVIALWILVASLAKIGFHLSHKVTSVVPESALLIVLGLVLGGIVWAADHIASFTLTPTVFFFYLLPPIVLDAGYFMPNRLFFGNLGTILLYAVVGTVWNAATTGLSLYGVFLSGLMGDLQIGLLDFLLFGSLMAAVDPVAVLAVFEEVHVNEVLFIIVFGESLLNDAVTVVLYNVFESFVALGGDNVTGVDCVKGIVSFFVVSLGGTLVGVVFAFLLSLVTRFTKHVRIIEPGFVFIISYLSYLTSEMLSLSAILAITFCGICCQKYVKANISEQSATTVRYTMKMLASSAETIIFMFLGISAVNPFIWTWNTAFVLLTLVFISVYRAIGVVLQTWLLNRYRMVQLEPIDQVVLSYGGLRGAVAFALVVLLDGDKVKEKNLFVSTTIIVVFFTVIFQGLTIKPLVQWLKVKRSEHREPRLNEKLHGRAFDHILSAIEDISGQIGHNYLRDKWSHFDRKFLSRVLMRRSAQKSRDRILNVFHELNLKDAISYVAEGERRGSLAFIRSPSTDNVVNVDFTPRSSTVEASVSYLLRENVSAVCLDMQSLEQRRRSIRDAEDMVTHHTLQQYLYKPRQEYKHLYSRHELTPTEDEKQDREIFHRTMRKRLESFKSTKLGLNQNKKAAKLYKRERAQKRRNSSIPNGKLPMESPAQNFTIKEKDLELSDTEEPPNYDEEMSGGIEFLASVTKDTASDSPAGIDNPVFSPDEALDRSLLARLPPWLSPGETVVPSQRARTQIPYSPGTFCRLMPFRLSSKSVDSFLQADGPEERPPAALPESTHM
Summary of the method: as §1

| Prompt Rat NHE3 pIC50 (Rat NHE3) | Prompt Human NHE3 pIC50 (Human NHE3) | Structure (SMILES) | Fecal Form Score average ([1]; dose 1 mg/kg) | Fecal Form Score average ([1]; dose 3 mg/kg) | Urine P % of control ([2]; dose 1 mg/kg) [%] | Urine P % of control ([2]; dose 3 mg/kg) [%] | Urine Na % of control ([3]; dose 1 mg/kg) [%] | Urine Na % of control ([3]; dose 3 mg/kg) [%] | Fecal Form Score average ([1]; dose 10 mg/kg) | Urine P % of control ([2]; dose 10 mg/kg) [%] | Urine Na % of control ([3]; dose 10 mg/kg) [%] | Fecal Form Score average ([1]; dose 30 mg/kg) | Urine P % of control ([2]; dose 30 mg/kg) [%] | Urine Na % of control ([3]; dose 30 mg/kg) [%] |
| --- | --- | --- | --- | --- | --- | --- | --- | --- | --- | --- | --- | --- | --- | --- |
| <5.00 | <5.00 | CN1Cc2c(Cl)cc(Cl)cc2C(c2cccc(S(=O)(=O)NCCOCCOCCOCCNC(=O)CCC(CCC(=O)NCCOCCOCCOCCNS(=O)(=O)c3cccc([C@@H]4CN(C)Cc5c(Cl)cc(Cl)cc54)c3)(CCC(=O)NCCOCCOCCOCCNS(=O)(=O)c3cccc([C@@H]4CN(C)Cc5c(Cl)cc(Cl)cc54)c3)NCc3ccc(-c4ccc(Cl)cc4)cc3)c2)C1 (stereo in doubt) [compound 114] |  |  |  |  |  |  | 3 | 100 | 45 |  |  |  |
| <5.00 | <5.00 | CN1Cc2c(Cl)cc(Cl)cc2[C@@H](c2cccc(S(=O)(=O)NCCOCCOCCNC(=O)NCCCCNC(=O)NCCOCCOCCNS(=O)(=O)c3cccc([C@H]4CN(C)Cc5c(Cl)cc(Cl)cc54)c3)c2)C1 [compound 40] | 1 |  | 149 |  | 80 |  | 1 | 128 | 90 |  |  |  |
| 5.80 | 8.37 | CN1Cc2c(Cl)cc(Cl)cc2[C@H](c2cccc(S(=O)(=O)NCCOCCOCCNC(=O)NCCCC(CCCNC(=O)NCCOCCOCCNS(=O)(=O)c3cccc([C@@H]4CN(C)Cc5c(Cl)cc(Cl)cc54)c3)(CCCNC(=O)NCCOCCOCCNS(=O)(=O)c3cccc([C@@H]4CN(C)Cc5c(Cl)cc(Cl)cc54)c3)NC(=O)NC[C@H](O)[C@@H](O)[C@H](O)[C@H](O)CO)c2)C1 [compound 167] |  | 2 |  | 99 |  | 36 |  |  |  |  |  |  |
| 6.70 | 7.80 | NCCOCCOCCN1CCN(c2cccc(-c3nc(N=C(N)N)nc4ccc(Cl)cc34)c2)CC1 [compound 16] |  |  |  |  |  |  |  |  |  | 1 | 123 | 87 |
| 7.70 | 7.70 | C/C(=C\c1cc(F)c(Oc2ccc(S(=O)(=O)NCCOCCOCCOCCNC(=O)N3CCN(C(=O)NCCOCCOCCOCCNS(=O)(=O)c4ccc(Oc5c(F)cc(/C=C(\C)C(=O)N=C(N)N)cc5F)cc4)CC3)cc2)c(F)c1)C(=O)N=C(N)N [compound 31] |  |  |  |  |  |  | 1 | 81 | 96 |  |  |  |
| 7.30 | 8.40 | N=C(N)Nc1nc(-c2cccc(N3CCN(CCOCCOCCOCCNC(=O)CCOCCOCCOCCOCCOCCOCCOCCC(=O)NCCOCCOCCOCCN4CCN(c5cccc(-c6nc(NC(=N)N)nc7ccc(Cl)cc67)c5)CC4)CC3)c2)c2cc(Cl)ccc2n1 [compound 32] |  |  |  |  |  |  | 1 | 122 | 128 |  |  |  |

More lines, now with the values behind:

| Structure (SMILES) | Prompt Rat NHE3 pIC50 (Rat NHE3) | Prompt Human NHE3 pIC50 (Human NHE3) | Fecal Form Score average ([1]; dose 1 mg/kg) | Fecal Form Score average ([1]; dose 3 mg/kg) | Urine P % of control ([2]; dose 1 mg/kg) [%] | Urine P % of control ([2]; dose 3 mg/kg) [%] | Urine Na % of control ([3]; dose 1 mg/kg) [%] | Urine Na % of control ([3]; dose 3 mg/kg) [%] | Fecal Form Score average ([1]; dose 10 mg/kg) | Urine P % of control ([2]; dose 10 mg/kg) [%] | Urine Na % of control ([3]; dose 10 mg/kg) [%] | Fecal Form Score average ([1]; dose 30 mg/kg) | Urine P % of control ([2]; dose 30 mg/kg) [%] | Urine Na % of control ([3]; dose 30 mg/kg) [%] |
| --- | --- | --- | --- | --- | --- | --- | --- | --- | --- | --- | --- | --- | --- | --- |
| CN1Cc2c(Cl)cc(Cl)cc2[C@H](c2cccc(S(=O)(=O)NCCOCCOCCNC(=O)CCC(CCC(=O)NCCOCCOCCNS(=O)(=O)c3cccc([C@@H]4CN(C)Cc5c(Cl)cc(Cl)cc54)c3)(CCC(=O)NCCOCCOCCNS(=O)(=O)c3cccc([C@@H]4CN(C)Cc5c(Cl)cc(Cl)cc54)c3)NC(=O)CCCC(=O)O)c2)C1 [compound 137] | 7.30 | 7.30 | 1 | 3 | 137 | 139 | 39 | 28 |  |  |  |  |  |  |
| C[C@@H](O)[C@H](NC(=O)NC(CCC(=O)NCCOCCOCCNS(=O)(=O)c1cccc([C@@H]2CN(C)Cc3c(Cl)cc(Cl)cc32)c1)(CCC(=O)NCCOCCOCCNS(=O)(=O)c1cccc([C@@H]2CN(C)Cc3c(Cl)cc(Cl)cc32)c1)CCC(=O)NCCOCCOCCNS(=O)(=O)c1cccc([C@@H]2CN(C)Cc3c(Cl)cc(Cl)cc32)c1)C(N)=O [compound 159] | 7.20 | 7.30 |  | 2 |  | 55 |  | 27 |  |  |  |  |  |  |
| CN1Cc2c(Cl)cc(Cl)cc2[C@H](c2cccc(S(=O)(=O)N(CCO)CCOCCOCCNC(=O)NCCCN(CCCNC(=O)NCCOCCOCCN(CCO)S(=O)(=O)c3cccc([C@@H]4CN(C)Cc5c(Cl)cc(Cl)cc54)c3)CCCNC(=O)NCCOCCOCCN(CCO)S(=O)(=O)c3cccc([C@@H]4CN(C)Cc5c(Cl)cc(Cl)cc54)c3)c2)C1 [compound 146] | 7.80 | 8.35 |  | 2 |  | 58 |  | 70 |  |  |  |  |  |  |
| N=C(N)Nc1nc(-c2cccc(S(=O)(=O)NCCOCCOCCOCCN)c2)c2cc(Cl)ccc2n1 [compound 12] | 6.10 | 7.00 |  |  |  |  |  |  | 1 | 94 | 82 |  |  |  |
| CN1Cc2c(Cl)cc(Cl)cc2[C@H](c2cccc(S(=O)(=O)NCCOCCOCCNC(=O)CCC(CCC(=O)NCCOCCOCCNS(=O)(=O)c3cccc([C@@H]4CN(C)Cc5c(Cl)cc(Cl)cc54)c3)(CCC(=O)NCCOCCOCCNS(=O)(=O)c3cccc([C@@H]4CN(C)Cc5c(Cl)cc(Cl)cc54)c3)NC(=O)NCCN3CCOCC3)c2)C1 [compound 144] | 7.20 | 7.77 |  | 2 |  | 47 |  | 32 |  |  |  |  |  |  |
| CN1Cc2c(Cl)cc(Cl)cc2[C@H](c2cccc(S(=O)(=O)NCCOCCOCCNC(=O)CN(CC(=O)NCCOCCOCCNS(=O)(=O)c3cccc([C@@H]4CN(C)Cc5c(Cl)cc(Cl)cc54)c3)CC(=O)NCCOCCOCCNS(=O)(=O)c3cccc([C@@H]4CN(C)Cc5c(Cl)cc(Cl)cc54)c3)c2)C1 [compound 74] | 6.30 | 6.80 |  |  |  |  |  |  | 3 | 44 | 30 |  |  |  |
| O=C(NCCCCNC(=O)NCCOCCOCCNS(=O)(=O)c1ccc(O[C@H]2c3cc(F)ccc3C[C@@H]2N2CCCCC2)cc1)NCCOCCOCCNS(=O)(=O)c1ccc(O[C@H]2c3cc(F)ccc3C[C@@H]2N2CCCCC2)cc1 [compound 140] | 8.90 | 7.70 |  |  |  |  |  |  | 1 | 121 | 110 |  |  |  |
| CN1Cc2c(Cl)cc(Cl)cc2[C@H](c2cccc(S(=O)(=O)NCCOCCOCCOCCNC(=O)CN3CCN(CC(=O)NCCOCCOCCOCCNS(=O)(=O)c4cccc([C@@H]5CN(C)Cc6c(Cl)cc(Cl)cc65)c4)CCN(CC(=O)NCCOCCOCCOCCNS(=O)(=O)c4cccc([C@@H]5CN(C)Cc6c(Cl)cc(Cl)cc65)c4)CCN(CC(=O)NCCOCCOCCOCCNS(=O)(=O)c4cccc([C@@H]5CN(C)Cc6c(Cl)cc(Cl)cc65)c4)CC3)c2)C1 [compound 58] | 6.30 | 7.30 |  |  |  |  |  |  | 1 | 68 | 82 |  |  |  |
| O=C(NCCOCCOCCNS(=O)(=O)c1ccc(O[C@H]2c3ccccc3C[C@@H]2N2CCCCC2)cc1)c1cccc(C(=O)NCCOCCOCCNS(=O)(=O)c2ccc(O[C@H]3c4ccccc4C[C@@H]3N3CCCCC3)cc2)c1 [compound 101] | <5.00 | 8.10 |  |  |  |  |  |  | 1 | 81 | 64 |  |  |  |
| CN(C)[C@H]1Cc2c(Cl)cc(Cl)cc2[C@@H]1Oc1ccc(S(=O)(=O)NCCOCCOCCNC(=O)CCC(=O)NCCOCCOCCNS(=O)(=O)c2ccc(O[C@H]3c4cc(Cl)cc(Cl)c4C[C@@H]3N(C)C)cc2)cc1 [compound 148] | 8.40 | 7.80 |  | 1 |  | 146 |  | 49 |  |  |  |  |  |  |
